Legend:
[1] = tested on: Human immunodeficiency virus 1; assay: Antiviral activity against HIV1 3B in human MT4 cells in presence of 50% normal human serum; format: functional; conditions: Human immunodeficiency virus 1, 3B, MT4; read-out: CIC95
[2] = tested on: Human immunodeficiency virus 1; assay: Antiviral activity against HIV1 3B in human MT4 cells in presence of 10% heat-inactivated fetal bovine serum; conditions: Human immunodeficiency virus 1, 3B, read-out: CIC95
[3] = tested on: Human immunodeficiency virus 1; assay: Antiviral activity against HIV1 with integrase T66I/M154 mutation by single cycle infectivity assay in presence of 10%FBS; format: functional
[4] = tested on: Human immunodeficiency virus 1; assay: Antiviral activity against HIV1 with integrase T66I/S153Y mutation by single cycle infectivity assay in presence of 10%FBS; format: functional
[5] = tested on: Human immunodeficiency virus 1; assay: Antiviral activity against HIV1 with integrase N155S mutation by single cycle infectivity assay in presence of 10%FBS; format: functional
[6] = tested on: Human immunodeficiency virus 1; assay: Antiviral activity against HIV1 with integrase T125K/F121Y mutation by single cycle infectivity assay in presence of 10%FBS; format: functional
[7] = tested on: Human immunodeficiency virus 1; assay: Antiviral activity against HIV1 with integrase T66I/L74M/V151I mutation by single cycle infectivity assay in presence of 10%FBS; format: functional
[8] = Cmax in po dosed Sprague-Dawley rat; format: ADME, organism-based; set-up: route oral; conditions: in vivo
[9] = AUC in Sprague-Dawley rat at 3 mg/kg, po; format: ADME, organism-based; set-up: dose 3 mg/kg, route oral; conditions: plasma
[10] = Protein binding in Sprague-Dawley rat plasma; format: ADME, cell-free; conditions: read-out: PPB (converted)
[11] = Protein binding in dog plasma; format: ADME, cell-free, Canis lupus familiaris; conditions: read-out: PPB (converted)
[12] = Protein binding in rhesus monkey plasma; format: ADME, cell-free, Macaca mulatta; conditions: read-out: PPB (converted)
[13] = Protein binding in human plasma; format: ADME, cell-free; conditions: read-out: PPB (converted)
[14] = molecular target: Human immunodeficiency virus type 1 integrase (Human immunodeficiency virus 1, UniProt Q7ZJM1); assay: Inhibition of HIV1 recombinant integrase strand transfer activity
[15] = Oral bioavailability in po dosed Sprague-Dawley rat; format: ADME, organism-based; conditions: in vivo
[16] = Oral bioavailability in po dosed dog; format: ADME, organism-based, Canis lupus familiaris; conditions: in vivo
[17] = Cmax in Sprague-Dawley rat at 3 mg/kg, po; format: ADME, organism-based; set-up: dose 3 mg/kg, route oral; conditions: in vivo
[18] = Cmax in dog at 10 mg/kg, po; format: ADME, organism-based, Canis lupus familiaris; set-up: dose 10 mg/kg, route oral; conditions: in vivo
[19] = Terminal half life in po dosed Sprague-Dawley rat; format: ADME, organism-based; conditions: in vivo
[20] = Terminal half life in dog at 10 mg/kg, po; format: ADME, organism-based, Canis lupus familiaris; set-up: dose 10 mg/kg, route oral; conditions: in vivo, read-out: beta t1/2 (converted)
[21] = AUC in dog at 10 mg/kg, po; format: ADME, organism-based, Canis lupus familiaris; set-up: dose 10 mg/kg, route oral; conditions: plasma
[22] = Plasma concentration in dog at 10 mg/kg, po after 12 hrs; format: ADME, organism-based, Canis lupus familiaris; set-up: dose 10 mg/kg, route oral

Chain of Human immunodeficiency virus type 1 integrase (Q7ZJM1 whole entry): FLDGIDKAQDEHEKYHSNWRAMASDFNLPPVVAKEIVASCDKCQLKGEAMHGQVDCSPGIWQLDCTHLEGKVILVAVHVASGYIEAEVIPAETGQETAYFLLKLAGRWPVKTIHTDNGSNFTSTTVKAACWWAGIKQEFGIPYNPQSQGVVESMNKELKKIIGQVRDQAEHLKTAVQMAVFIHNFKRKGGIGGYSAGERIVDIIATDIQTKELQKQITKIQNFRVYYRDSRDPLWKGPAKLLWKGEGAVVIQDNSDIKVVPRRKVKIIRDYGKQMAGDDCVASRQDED

IC50 [14]	Compound	IC95 [1]	IC95 [2]	also measured
–	CN(C)C(C)(C)c1nc(O)c(O)c(C(=O)NCc2ccc(F)cc2)n1	78 nM	60 nM	–
–	CN1CCOCC1c1nc(C(=O)NCc2ccc(F)cc2)c(O)c(=O)n1C (stereo not drawn)	100 nM	60 nM	–
–	O=C(NCc1ccc(F)cc1)c1nc(N2CCCCS2(=O)=O)c2cccnc2c1O	–	–	Activity [3]: 3%; Activity [4]: 1.3%; Activity [5]: 10%; Activity [6]: 12%; Activity [7]: 9%
–	Cc1nnc(C(=O)NC(C)(C)c2nc(C(=O)NCc3ccc(F)cc3)c([O-])c(=O)n2C)o1.[Na+]	–	–	Cmax [8]: 1000 nM; AUC [9]: 1.4 µM·h; fraction unbound [10]: 0.74; fraction unbound [11]: 0.71; fraction unbound [12]: 0.85; fraction unbound [13]: 0.83
15 nM	Cn1c(C(C)(C)NC(=O)c2cccnn2)nc(C(=O)NCc2ccc(F)cc2)c(O)c1=O	500 nM	62 nM	–
7 nM	Cn1c(C(C)(C)NC(=O)c2cnco2)nc(C(=O)NCc2ccc(F)cc2)c(O)c1=O	500 nM	500 nM	–
8 nM	Cn1c(C(C)(C)NC(=O)c2cscn2)nc(C(=O)NCc2ccc(F)cc2)c(O)c1=O	312 nM	< 78 nM	–
9 nM	CN(C)C(=O)C(=O)NC(C)(C)c1nc(C(=O)NCc2ccc(F)c(Cl)c2)c(O)c(=O)n1C	130 nM	31 nM	–
20 nM	Cn1c(C(C)(C)NC(=O)c2ccccn2)nc(C(=O)NCc2ccc(F)cc2)c(O)c1=O	1000 nM	125 nM	–
21 nM	COc1cccc(CNC(=O)c2nc(C(C)(C)NC(=O)C(=O)N(C)C)n(C)c(=O)c2O)c1OC	> 1000 nM	1000 nM	–
6 nM	Cn1c(C(C)(C)NC(=O)c2c[nH]cn2)nc(C(=O)NCc2ccc(F)cc2)c(O)c1=O	250 nM	250 nM	–
–	CN(C)C(=O)C(=O)NC(C)(C)c1nc(C(=O)NCc2ccc(F)cc2)c([O-])c(=O)n1C.[Na+]	125 nM	–	bioavailability [15]: 36%; bioavailability [16]: 93%; Cmax [17]: 4100 nM; Cmax [18]: 32000 nM; half-life [19]: 2.3 h; half-life [20]: 11.9 h; AUC [9]: 2.2 µM·h; AUC [21]: 47 µM·h; fraction unbound [10]: 0.65; fraction unbound [11]: 0.62; fraction unbound [12]: 0.82; fraction unbound [13]: 0.72; concentration at 12 h [22]: 246 nM
3 nM	Cn1c(C(C)(C)N2CCOCC2)nc(C(=O)NCc2ccc(F)cc2)c(O)c1=O	500 nM	65 nM	–
2 nM	CN(C)C1(c2nc(C(=O)NCc3ccc(F)cc3)c(O)c(=O)n2C)CCOCC1	1000 nM	250 nM	–
7 nM	CC(=O)NC(C)(C)c1nc(C(=O)NCc2ccc(F)cc2)c(O)c(=O)n1C	400 nM	310 nM	–
26 nM	CN1CCN(C(=O)C(=O)NC(C)(C)c2nc(C(=O)NCc3ccc(F)cc3)c(O)c(=O)n2C)CC1	250 nM	125 nM	–
> 5000 nM	CNC(=O)c1nc(C(C)(C)NC(=O)C(=O)N(C)C)n(C)c(=O)c1O	> 10000 nM	> 10000 nM	–
230 nM	CN(C)C(C)(C)c1nc(C(=O)NCc2ccc(F)cc2)c(O)c(=O)n1C	> 1000 nM	1000 nM	–
12 nM	CN(C)S(=O)(=O)NC(C)(C)c1nc(C(=O)NCc2ccc(F)cc2)c(O)c(=O)n1C	500 nM	125 nM	–
15 nM	CN(C)C(=O)C(=O)N(C)C(C)(C)c1nc(C(=O)NCc2ccc(F)cc2)c(O)c(=O)n1C	125 nM	62 nM	–
15 nM	COC(=O)C(=O)NC(C)(C)c1nc(C(=O)NCc2ccc(F)cc2)c(O)c(=O)n1C	> 1000 nM	1000 nM	–
18 nM	CN(C)C(=O)NC(C)(C)c1nc(C(=O)NCc2ccc(F)cc2)c(O)c(=O)n1C	> 1000 nM	1000 nM	–
20 nM	Cn1c(C(C)(C)NC(=O)C(=O)N2CCOCC2)nc(C(=O)NCc2ccc(F)cc2)c(O)c1=O	125 nM	125 nM	–
4 nM	Cc1nnc(C(=O)NC(C)(C)c2nc(C(=O)NCc3ccc(F)cc3)c(O)c(=O)n2C)[nH]1	1000 nM	250 nM	–
4 nM	CN(C)C(=O)C(=O)NC(C)(C)c1nc(C(=O)NCc2ccc(F)cc2S(C)(=O)=O)c(O)c(=O)n1C	125 nM	125 nM	–
7 nM	Cn1c(C(C)(C)NC(=O)c2ncccn2)nc(C(=O)NCc2ccc(F)cc2)c(O)c1=O	50 nM	20 nM	–
4 nM	Cn1c(C(C)(C)NC(=O)C(=O)O)nc(C(=O)NCc2ccc(F)cc2)c(O)c1=O	1000 nM	250 nM	–
8 nM	Cn1c(C(C)(C)NS(C)(=O)=O)nc(C(=O)NCc2ccc(F)cc2)c(O)c1=O	1000 nM	62 nM	–
–	O=C(/C=C(\O)c1nc[nH]n1)c1ccc(Cc2ccc(F)cc2)o1 [S-1360]	–	–	Activity [3]: 20%; Activity [4]: 50%; Activity [5]: >50%; Activity [6]: 50%; Activity [7]: 100%

Reference: ChEMBL document CHEMBL1140081 (J Med Chem, 2008)
